Assay results as given in article PMC7607171, “Optimized low‐dose combinatorial drug treatment boosts selectivity and efficacy of colorectal carcinoma treatment” (Molecular Oncology, 2020).
Where “and” joins values, the source holds several entries; their conditions need not be identical. Identical values can stand only once. Like-named read-outs stand apart in the source and are kept apart here.

Tests used:
[1] = Serum and intratumor drug concentration at experimental endpoint, DLD1 model; type: in vivo, mice; conditions: for concentration at 1 h / Kp at 1 h: Swiss Nu/nu, mouse, oral; for concentration at 1 h: 1h post-treatment at endpoint (day 15); for Kp at 1 h: tumor vs serum, read-out: ratio tumor vs serum; for Kp at 1 h / ratio ODC vs single drug: DLD1 model
Experimental: At the experimental endpoint, plasma and tumors were collected 1h post‐treatment and part of the tumor tissue was used to determine the intratumor drug concentrations. Plasma and tumor samples were analyzed using the same LC‐MS/MS method used for drug determination in DBS. Before analysis, tumor tissues were homogenized in a 1 mL mixture of water/acetonitrile (30/70). Hundred uL of homogenates were transferred into new tubes and 50 µL of acetonitrile, as well as 50 µL of a mix of internal standards in MeOH were added. Tubes were vortexed and centrifuged for 10 min at 9,000 rpm. The supernatant (100 µL) was evaporated under nitrogen and reconstituted in 100 µL of acetonitrile with 0.1% formic acid/water with 0.1% formic acid (30/70). 10 µL was then injected into the LC‐MS/MS system. Plasma samples were spotted onto the same paper used for whole blood analysis and were extracted and analyzed using the same methods as used for DBS.

[2] = Pharmacokinetics, dried blood spot LC-MS/MS, mice with DLD1 tumors; type: in vivo; conditions: for Tmax / AUC(0-t) / Cmax: Swiss Nu/nu, mouse, whole blood (dried blood spot), po, regorafenib 15, erlotinib 12.5, selumetinib 5, vemurafenib 75 mg/kg; for AUC(0-t) / Cmax: whole blood, mean ± SD; for AUC(0-t): oral, read-out: AUC0-24h
Experimental: The pharmacokinetic (PK) study was performed using the dried blood spot method. Mice were treated with CTRL, ODCs, and corresponding monotherapies as described above. To determine the disposition in blood in the first 24h, blood samples (5 µL/mouse) were collected from the tail vein (n = 4 mice) at 2h, 4h, 8h, and 24h time points and transferred onto paper (a filter paper 903 protein saver card from Whatman (MA, USA)). A disk with the entire spot was punched from the paper card and transferred to the HPLC vial tube. Hundred µL of MeOH containing a mix of internal standards was added, and the tube was vortex‐mixed for about 1 min before injecting 10 µL into the LC‐MS/MS system. The LC‐MS/MS system consisted of an API 4,000 triple quadrupole mass spectrometer (AB sciex, Concord, ON, Canada) controlled by analyst 1.6.1 software. The mass spectrometer was operated in the multiple reaction monitoring (MRM) mode with positive electrospray ionization. The instrument was coupled with an Agilent series 1100 (Waldbronn, Germany) LC system. Chromatography was performed on a Phenomenex Kinetex C18 analytical column (50 mm x 2.1 mm, 2.6 um; Torrance, CA, USA). The flow rate was 0.5 mL/min using gradient elution conditions. The method was fully validated before application to this pharmacokinetic study.

[3] = system: DLD1 tumors; test: Subcutaneous xenograft tumor growth; type: in vivo, Swiss nu/nu mice
Experimental: All procedures including animal use were performed in accordance with the Institutional Ethical Committee of Animal Care in Geneva and the Swiss Cantonal Veterinary Office (Authorization number GE‐136‐19). Briefly, female and male Swiss nu/nu mice aged 6–8 weeks were obtained from Charles River (Écully, France). For subcutaneous xenografts mice were inoculated in the left flank with 5x10^6 DLD1 or SW620 cells suspended in 100 µL of cell culture medium, supplemented with 1% FBS.
Drugs were administered through oral gavage based on average body weight of the males (100 µL/mouse) and females (80 µL/mouse) at various concentrations, see Tables S10 and S11.
Solution A: step (1) 30% PEG 400 + 5% propylene glycol + 0.5% Tween 80 and (2) 64.5% sterile H2O. Solution B: step (1) 10% DMSO, (2) 30% PEG 300 + 5% Tween 80 and (3) 55% sterile H2O. […] FOLFOX was administered as 6 mg/kg oxaliplatin two hours before administration of 90 mg/kg leucovorin and 50 mg/kg (DLD1) or 25 mg/kg (SW620) 5‐fluorouracil at day 1 and a repeat of 5‐fluorouracil dosing on day 2.
The Bliss independence model can be used to evaluate the drug interaction potential of a drug mixture. […] The model is based on the probability theory and requires the drug activity of each drug at the selected dose to predict the inhibition rate (IR) at additive doses.

[4] = 0-24h; ref EPAR WC00033991; cited from earlier work
[5] = Clinical plasma pharmacokinetics in patients, plasma concentration limit calculation; type: in vivo; conditions: average plasma concentration calculated from AUC0-24h in patients
Experimental: To select for clinically relevant doses, the clinically attainable drug concentration measured in the blood plasma of patients after treatment is used to calculate the concentration limit for in vitro experiments. […] The average drug concentration is calculated from the AUC0–24h and is implemented as the plasma concentration limit (PCL) which drug dose selection must remain below for in vitro experiments. If a drug is FDA approved, the AUC0–24h selected is the one corresponding to the recommended dose in clinical practice. If a drug is in clinical trials, the AUC0–24h selected is the one corresponding to the maximum tolerated dose in early stage clinical trials. Note, experiments were conducted with the most current PCL calculated from the AUC0–24h information available at the start of experiments (December 2017), see Table S4.

[6] = given as part of DLD1-specific ODC
[7] = erlotinib 5 mg/kg, Exp 1, Day 11
[8] = erlotinib 12.5 mg/kg, Exp 1, Day 11
[9] = erlotinib 12.5 mg/kg, Exp 5, Day 16
[10] = erlotinib 12.5 mg/kg, Exp 7, Day 15

Structure (SMILES): C#Cc1cccc(Nc2ncnc3cc(OCCOC)c(OCCOC)cc23)c1 [erlotinib]
- concentration at 1 h ([1]; serum, as part of ODC, regorafenib 15, erlotinib 12.5, selumetinib 5, vemurafenib 75 mg/kg, read-out: concentration serum): 3040 ± 910 ng/mL
- concentration at 1 h ([1]; serum, single drug, regorafenib 15, erlotinib 12.5, selumetinib 5, vemurafenib 75 mg/kg, read-out: concentration serum): 2330 ± 180 ng/mL
- concentration at 1 h ([1]; tumor (DLD1), as part of ODC, DLD1 tumor, doses as E156, read-out: concentration tumor): 7600 ± 3200 ng/g
- concentration at 1 h ([1]; tumor (DLD1), single drug, DLD1 tumor, doses as E156, read-out: concentration tumor): 3620 ± 140 ng/g
- Kp at 1 h ([1]; as part of ODC): 2.5
- Kp at 1 h ([1]; single drug): 1.55
- ratio ODC vs single drug ([1]; serum): 1.31
- ratio ODC vs single drug ([1]; tumor): 2.10
- Tmax [2, 6]: 2 h
- AUC(0-t) [2, 6]: 22300 ± 5140 ng·h/mL
- Cmax [2, 6]: 3370 ± 2160 ng/mL
- Tmax ([2]; mono): 2 h
- AUC(0-t) ([2]; mono): 19600 ± 7660 ng·h/mL
- Cmax ([2]; mono): 2610 ± 860 ng/mL
- increase of AUC as part of the ODC vs single-drug treatment ([2]; mice with DLD1 tumors, AUC0-24h): 1.14 x
- % CTRL (tumor volume) [3, 7]: 104 72 27 % CTRL
- Volume [3, 7]: 482 336 127 mm^3
- % CTRL (tumor volume) [3, 8]: 87 35 13 % CTRL
- Volume [3, 8]: 405 161 61 mm^3
- % CTRL (tumor volume) [3, 9]: 66 28 12 % CTRL
- Volume [3, 9]: 420 178 80 mm^3
- % CTRL (tumor volume) [3, 10]: 98 44 22 % CTRL
- Volume [3, 10]: 420 211 86 mm^3
- AUC [4]: 15.2 mg*h/L EPAR WC00033991
- PCL (plasma concentration limit) [5]: 1.61 µM and 1.6 µM
